In ChEMBL document CHEMBL4732033, “New prodrugs and analogs of the phenazine 5,10-dioxide natural products iodinin and myxin promote selective cytotoxicity towards human acute myeloid leukemia cells” (RSC Med Chem, 2021):

What was measured:
MOLM-13 [1] = test: Cytotoxicity against human MOLM13 cells assessed as reduction in cell viability incubated for 24 hrs under 2% O2 condition by WST-1 assay; format: functional, cell-based; conditions: MOLM-13, 24 h
MOLM-13 [2] = test: Cytotoxicity against human MOLM13 cells assessed as reduction in cell viability incubated for 24 hrs under 19% O2 condition by WST-1 assay; format: functional, cell-based; conditions: MOLM-13, 24 h
H9c2 [3] = test: Cytotoxicity against rat H9c2 cells assessed as reduction in cell viability incubated for 24 hrs under 19% O2 condition by WST-1 assay; format: cell-based; conditions: H9c2, 24 h
NRK [4] = test: Cytotoxicity against rat NRK cells assessed as reduction in cell viability incubated for 24 hrs under 2% O2 condition by WST-1 assay; format: cell-based
NRK [5] = test: Cytotoxicity against rat NRK cells assessed as reduction in cell viability incubated for 24 hrs under 19% O2 condition by WST-1 assay; format: cell-based
[6] = Selectivity index, ratio of EC50 for rat NRK cells to EC50 for human MOLM13 cells; format: toxicity; conditions: NRK cells versus MOLM13 cells, read-out: Ratio EC50
[7] = Selectivity index, ratio of EC50 for rat H9c2 cells to EC50 for human MOLM13 cells; format: toxicity; conditions: H9c2 cells versus MOLM13 cells, read-out: Ratio EC50
[8] = Selectivity index, ratio of EC50 for rat NRK cells to EC50 for human MOLM13 cells under 19% O2 condition; format: toxicity; conditions: NRK cells versus MOLM13 cells, read-out: Ratio EC50
[9] = Selectivity index, ratio of EC50 for rat NRK cells to EC50 for human MOLM13 cells under 2% O2 condition; format: toxicity; conditions: NRK cells versus MOLM13 cells, read-out: Ratio EC50
NRK [10] = test: Cytotoxicity against rat NRK cells assessed as reduction in cell viability incubated for 24 hrs under 19% O2 condition by Hoechst 33342 staining based microscopic analysis
NRK [11] = test: Cytotoxicity against rat NRK cells assessed as reduction in cell viability incubated for 24 hrs under 2% O2 condition by Hoechst 33342 staining based microscopic analysis
H9c2 [12] = test: Cytotoxicity against rat H9c2 cells assessed as reduction in cell viability incubated for 24 hrs under 19% O2 condition by Hoechst 33342 staining based microscopic analysis; conditions: H9c2, 24 h
[13] = Solubility of the compound in DMSO; format: physicochemical

Row | solubility [13] | SMILES | EC50 (MOLM-13 [1]) [µM] | EC50 (MOLM-13 [2]) [µM] | EC50 (H9c2 [3]) [µM] | EC50 (NRK [4]) [µM] | EC50 (NRK [5]) [µM] | selectivity ratio [6] | selectivity ratio [7] | selectivity ratio [8] | selectivity ratio [9] | EC50 (NRK [10]) [µM] | EC50 (NRK [11]) [µM] | EC50 (H9c2 [12]) [µM]
1 | – | CCCCC(=O)Oc1cccc2c1[n+]([O-])c1cccc(OC(=O)CCCC)c1[n+]2[O-] | 22 | 36 | > 25 | – | – | – | – | – | – | – | – | –
2 | – | CN1CCN(C(=O)Oc2cccc3c2[n+]([O-])c2cccc(O)c2[n+]3[O-])CC1 | 1.4 | 1.5 | 100 | 59 | 53 | > 15 | > 15 | – | – | – | – | –
3 | – | Cc1cc2c(cc1C)[n+]([O-])c1c(OC(=O)N3CCCC3)cccc1[n+]2[O-] | 0.78 | 1.5 | 8.7 | 8.9 | 6.6 | – | – | – | – | – | – | –
4 | – | O=C(Oc1cccc2c1[n+]([O-])c1cccc(O)c1[n+]2[O-])N1CCCC1 | 0.79 | 0.86 | 12 | 15 | 9.6 | > 15 | > 15 | – | – | – | – | –
5 | – | CN(C)C(=O)Oc1cccc2c1[n+]([O-])c1ccccc1[n+]2[O-] | 2.1 | 1.3 | 16 | 25 | 19 | – | – | – | – | – | – | –
6 | – | CC(C)(C)C(=O)Oc1cccc2c1[n+]([O-])c1cccc(OC(=O)C(C)(C)C)c1[n+]2[O-] | 8.9 | 11 | > 25 | – | – | – | – | – | – | – | – | –
7 | – | CN1CCN(C(=O)Oc2cccc3c2[n+]([O-])c2cc4ccccc4cc2[n+]3[O-])CC1 | 1.8 | 2.8 | 2.3 | 7.5 | 2 | – | – | – | – | – | – | –
8 | – | [O-][n+]1c2ccccc2[n+]([O-])c2c(O)cccc21 | 12 | 11 | > 100 | > 100 | 79 | – | – | – | – | – | – | –
9 | – | CN1CCN(C(=O)Oc2cccc3c2[n+]([O-])c2cc(Cl)c(Cl)cc2[n+]3[O-])CC1 | 0.32 | 0.34 | 3.2 | 15 | 11 | – | – | > 30 | 45 | – | – | –
10 | – | COc1cccc2c1[n+]([O-])c1cccc(OC(=O)N(C)C)c1[n+]2[O-] | 1.7 | 1.9 | 35 | 29 | 22 | > 15 | > 15 | – | – | – | – | –
11 | – | Nc1n[n+]([O-])c2ccccc2[n+]1[O-] [TIRAPAZAMINE] | – | – | – | – | – | – | – | – | – | > 100 | 35 | > 100
12 | – | Cc1cc2c(cc1C)[n+]([O-])c1c(O)cccc1[n+]2[O-] | 2.3 | 2.8 | > 50 | > 50 | > 50 | – | – | – | – | – | – | –
13 | – | CC(C)(C)OC(=O)COc1cccc2c1[n+]([O-])c1ccccc1[n+]2[O-] | 1.9 | 2.2 | 20 | 25 | 26 | – | – | – | – | – | – | –
14 | Insoluble | [O-][n+]1c2cc3ccccc3cc2[n+]([O-])c2c(O)cccc21 | > 10 | – | – | – | – | – | – | – | – | – | – | –
15 | – | CCOC(=O)COc1cccc2c1[n+]([O-])c1cc(C)c(C)cc1[n+]2[O-] | 6.3 | 8.3 | > 100 | > 100 | – | – | – | – | – | – | – | –
16 | – | Cc1c(C)[n+]([O-])c2c(OC(=O)N3CCN(C)CC3)cccc2[n+]1[O-] | > 200 | > 200 | – | – | – | – | – | – | – | – | – | –
17 | – | O=C(Oc1cccc2c1[n+]([O-])c1ccccc1[n+]2[O-])N1CCCC1 | 1.2 | 1.5 | 13 | 21 | 18 | – | – | – | – | – | – | –
18 | – | [O-][n+]1c2cccc(O)c2[n+]([O-])c2cccc(O)c21 | – | – | > 50 | > 50 | > 50 | – | – | – | – | – | – | –

Row | solubility [13] | SMILES | EC50 (MOLM-13 [1]) [µM] | EC50 (MOLM-13 [2]) [µM] | EC50 (H9c2 [3]) [µM] | EC50 (NRK [4]) [µM] | EC50 (NRK [5]) [µM] | selectivity ratio [6] | selectivity ratio [7] | selectivity ratio [8] | selectivity ratio [9] | EC50 (NRK [10]) [µM] | EC50 (NRK [11]) [µM] | EC50 (H9c2 [12]) [µM]
19 | – | CN1CCN(C(=O)Oc2cccc3c2[n+]([O-])c2cc(Br)c(Br)cc2[n+]3[O-])CC1 | 0.23 | 0.41 | 2.2 | 7.6 | 6.2 | – | – | – | – | – | – | –
20 | – | CCOC(=O)COc1cccc2c1[n+]([O-])c1ccccc1[n+]2[O-] | 1.7 | 1.5 | 20 | 25 | 26 | – | – | – | – | – | – | –
21 | – | CCN(CC)C(=O)COc1cccc2c1[n+]([O-])c1cc(C)c(C)cc1[n+]2[O-] | 3.4 | 1.8 | 41 | 52 | 21 | – | – | – | – | – | – | –
22 | – | Cc1cc2c(cc1C)[n+]([O-])c1c(OC(=O)N3CCN(C)CC3)cccc1[n+]2[O-] | 0.54 | 0.63 | 9.4 | 13 | 12 | – | – | – | – | – | – | –
23 | – | COc1cccc2c1[n+]([O-])c1cccc(OC(=O)N3CCN(C)CC3)c1[n+]2[O-] | 0.98 | 1 | 26 | 39 | 26 | > 15 | > 15 | – | – | – | – | –
24 | – | Cc1c(C)[n+]([O-])c2c(O)cccc2[n+]1[O-] | > 200 | > 200 | – | – | – | – | – | – | – | – | – | –
25 | – | CCOC(=O)COc1cccc2c1[n+]([O-])c1cc(Br)c(Br)cc1[n+]2[O-] | 1.6 | 2.4 | 3.3 | 9.7 | 10 | – | – | – | – | – | – | –
26 | – | COc1cccc2c1[n+]([O-])c1cccc(OC(=O)N3CCCC3)c1[n+]2[O-] | 1.8 | 2 | 35 | 35 | 32 | > 15 | > 15 | – | – | – | – | –
27 | – | CCOC(=O)Oc1cccc2c1[n+]([O-])c1cccc(O)c1[n+]2[O-] | 66 | 50 | > 100 | – | – | – | – | – | – | – | – | –
28 | – | CCN(CC)C(=O)COc1cccc2c1[n+]([O-])c1ccccc1[n+]2[O-] | 1.4 | 1.2 | 23 | 16 | 13 | – | – | – | – | – | – | –
29 | – | CCOC(=O)Oc1cccc2c1[n+]([O-])c1cccc(OC(=O)OCC)c1[n+]2[O-] | 4 | 6.1 | > 25 | > 25 | > 25 | – | – | – | – | – | – | –
30 | – | CN(C)C(=O)Oc1cccc2c1[n+]([O-])c1cccc(O)c1[n+]2[O-] | 0.7 | 0.89 | 64 | 62 | 49 | > 15 | > 15 | – | – | – | – | –
31 | – | CCOC(=O)COc1cccc2c1[n+]([O-])c1cc(Cl)c(Cl)cc1[n+]2[O-] | 0.38 | 0.41 | 1.3 | 4.7 | 3.1 | – | – | – | – | – | – | –
32 | – | Cc1c(C)[n+]([O-])c2c(OC(=O)N3CCOCC3)cccc2[n+]1[O-] | > 200 | > 200 | – | – | – | – | – | – | – | – | – | –
33 | – | CCOC(=O)COc1cccc2c1[n+]([O-])c1cccc(O)c1[n+]2[O-] | – | – | 15 | 18 | 12 | – | – | – | – | – | – | –
34 | – | COc1cccc2c1[n+]([O-])c1cccc(O)c1[n+]2[O-] | – | – | 46 | 76 | 77 | – | – | – | – | – | – | –
35 | – | CN1CCN(C(=O)Oc2cccc3c2[n+]([O-])c2ccccc2[n+]3[O-])CC1 | 1.9 | 1.5 | 36 | 37 | 25 | – | – | – | – | – | – | –
